From patent US8535736B2, “Methods and compositions for the treatment of infection or infectious colonization of the eyelid, ocular surface, skin or ear” (Advanced Vision Research, Inc, priority 2006, dated 2013)

Legend:
P. aeruginosa = conditions: disc diffusion and broth dilution methods; cited from earlier work
Pseudomonas aeruginosa = assay: Kill-time test (exposure time, survivors, log and percent reduction in CFU); type: cell-based; conditions: Linalool 0.75% alone, at one minute
Method: (§1) The following experiments were performed with a number of topical preparations to test the efficacy of each preparation against both gram negative and gram positive bacteria. The data is presented in tables showing the organism which the preparation was tested against, the exposure time, the number of survivors, the log reduction and the percent reduction in CFUs (Colony Forming Units).
(§2) Experiments were performed with tea tree oil, manuka oil, alpha-terpineol, and linalool in the EyeCI vehicle. The EyeCL vehicle (Advanced Vision Research, Woburn, Mass.) and OcuSoft Lid Scrub Foaming Eyelid Cleanser (CYNACON/OCUSOFT, Rosenberg, Tex.) were tested as controls.

Staphylococcus aureus = assay: as above; type: cell-based; conditions: at 1 minute
Method: as §1, §2

SMILES | activity against P. aeruginosa (P. aeruginosa) | log of Pseudomonas killing (Pseudomonas aeruginosa) | log reduction in S. aureus killing (Staphylococcus aureus; 0.75% linalool alone) | log reduction in S. aureus (Staphylococcus aureus; 0.85% linalool)
CC1=CCC(C(C)(C)O)CC1 (stereo not drawn) [alpha-terpineol] | inactive |  |  | 
C=CC(C)(O)CCC=C(C)C (centres unmarked) [linalool] | inactive | greater than 1 log | ~1 log | > 1 log
